{"source": "PubChem BioAssay AID1259407", "about": "(Chemical Carcinogenesis Research Information System (CCRIS), 2018)", "test_system": "CCRIS mutagenicity, Ames/micronucleus/aberration tests", "test": "CCRIS mutagenicity studies", "key": {"[1]": {"conditions": "Test System: AMES SALMONELLA TYPHIMURIUM, Strain/Indicator: TA98, Metabolic Activation: NONE, Method: STANDARD PLATE"}, "[2]": {"conditions": "Test System: AMES SALMONELLA TYPHIMURIUM, Strain/Indicator: TA98, Metabolic Activation: RAT, LIVER, S-9, AROCLOR 1254, Method: STANDARD PLATE"}, "[3]": {"conditions": "Test System: AMES SALMONELLA TYPHIMURIUM, Strain/Indicator: TA100, Metabolic Activation: NONE, Method: STANDARD PLATE"}, "[4]": {"conditions": "Test System: AMES SALMONELLA TYPHIMURIUM, Strain/Indicator: TA100, Metabolic Activation: RAT, LIVER, S-9, AROCLOR 1254, Method: STANDARD PLATE"}, "[5]": {"conditions": "Test System: AMES SALMONELLA TYPHIMURIUM, Strain/Indicator: TA1535, Metabolic Activation: NONE, Method: STANDARD PLATE"}, "[6]": {"conditions": "Test System: AMES SALMONELLA TYPHIMURIUM, Strain/Indicator: TA1535, Metabolic Activation: RAT, LIVER, S-9, AROCLOR 1254, Method: STANDARD PLATE"}, "[7]": {"conditions": "Test System: AMES SALMONELLA TYPHIMURIUM, Strain/Indicator: TA1537, Metabolic Activation: NONE, Method: STANDARD PLATE"}, "[8]": {"conditions": "Test System: AMES SALMONELLA TYPHIMURIUM, Strain/Indicator: TA1537, Metabolic Activation: RAT, LIVER, S-9, AROCLOR 1254, Method: STANDARD PLATE"}}, "note": "Activity calls are given as the source filed them. No rule for the calls is given here."}
{"smiles": "BrCCCCBr", "values": [{"measurement": "mutagenic call", "setting": "End Point: IN VITRO CHROMOSOMAL ABERRATIONS, Test System: CHL CELLS, Metabolic Activation: RAT, LIVER, S-9, SODIUM PHENOBARBITAL AND 5,6-BENZOFLAVONE", "result": "active; positive (structural changes); authors report equivocal results for ploidy chang"}, {"measurement": "mutagenic call", "setting": "Test System: AMES SALMONELLA TYPHIMURIUM, Strain/Indicator: TA98, Metabolic Activation: NONE, Method: PREINCUBATION", "result": "inactive; negative"}, {"measurement": "mutagenic call", "setting": "Test System: AMES SALMONELLA TYPHIMURIUM, Strain/Indicator: TA98, Metabolic Activation: RAT LIVER S-9, PHENOBARBITAL AND BETA-NAPHTHOFLAVONE, Method: PREINCUBATION", "result": "inactive; negative"}, {"measurement": "mutagenic call", "setting": "Test System: AMES SALMONELLA TYPHIMURIUM, Strain/Indicator: TA100, Metabolic Activation: NONE, Method: PREINCUBATION", "result": "inactive; negative"}, {"measurement": "mutagenic call", "setting": "Test System: AMES SALMONELLA TYPHIMURIUM, Strain/Indicator: TA1535, Metabolic Activation: NONE, Method: PREINCUBATION", "result": "active; positive"}, {"measurement": "mutagenic call", "setting": "Test System: AMES SALMONELLA TYPHIMURIUM, Strain/Indicator: TA1535, Metabolic Activation: RAT LIVER S-9, PHENOBARBITAL AND BETA-NAPHTHOFLAVONE, Method: PREINCUBATION", "result": "active; positive"}, {"measurement": "mutagenic call", "setting": "Test System: AMES SALMONELLA TYPHIMURIUM, Strain/Indicator: TA1537, Metabolic Activation: NONE, Method: PREINCUBATION", "result": "inactive; negative"}, {"measurement": "mutagenic call", "setting": "Test System: AMES SALMONELLA TYPHIMURIUM, Strain/Indicator: TA1537, Metabolic Activation: RAT LIVER S-9, PHENOBARBITAL AND BETA-NAPHTHOFLAVONE, Method: PREINCUBATION", "result": "inactive; negative"}, {"measurement": "mutagenic call", "setting": "Test System: E.COLI, Strain/Indicator: WP2UVRA, Metabolic Activation: NONE, Method: PREINCUBATION", "result": "active; positive"}, {"measurement": "mutagenic call", "setting": "Test System: E.COLI, Strain/Indicator: WP2UVRA, Metabolic Activation: RAT LIVER S-9, PHENOBARBITAL AND BETA-NAPHTHOFLAVONE, Method: PREINCUBATION", "result": "active; positive"}]}
{"smiles": "Cc1nc2ccccc2s1", "values": [{"measurement": "mutagenic call", "setting": "Test System: AMES SALMONELLA TYPHIMURIUM, Strain/Indicator: TA98, Metabolic Activation: HAMSTER, LIVER, S-9, AROCLOR 1254, Method: STANDARD PLATE", "result": "inactive; negative"}, {"measurement": "mutagenic call", "setting": "[1]", "result": "inactive; negative"}, {"measurement": "mutagenic call", "setting": "[2]", "result": "inactive; negative"}, {"measurement": "mutagenic call", "setting": "Test System: AMES SALMONELLA TYPHIMURIUM, Strain/Indicator: TA100, Metabolic Activation: HAMSTER, LIVER, S-9, AROCLOR 1254, Method: STANDARD PLATE", "result": "inactive; negative"}, {"measurement": "mutagenic call", "setting": "[3]", "result": "inactive; negative"}, {"measurement": "mutagenic call", "setting": "[4]", "result": "inactive; negative"}, {"measurement": "mutagenic call", "setting": "Test System: AMES SALMONELLA TYPHIMURIUM, Strain/Indicator: TA102, Metabolic Activation: HAMSTER, LIVER, S-9, AROCLOR 1254, Method: STANDARD PLATE", "result": "inactive; negative"}, {"measurement": "mutagenic call", "setting": "Test System: AMES SALMONELLA TYPHIMURIUM, Strain/Indicator: TA102, Metabolic Activation: NONE, Method: STANDARD PLATE", "result": "inactive; negative"}, {"measurement": "mutagenic call", "setting": "Test System: AMES SALMONELLA TYPHIMURIUM, Strain/Indicator: TA102, Metabolic Activation: RAT, LIVER, S-9, AROCLOR 1254, Method: STANDARD PLATE", "result": "inactive; negative"}, {"measurement": "mutagenic call", "setting": "Test System: AMES SALMONELLA TYPHIMURIUM, Strain/Indicator: TA1535, Metabolic Activation: HAMSTER, LIVER, S-9, AROCLOR 1254, Method: STANDARD PLATE", "result": "inactive; negative"}, {"measurement": "mutagenic call", "setting": "[5]", "result": "inactive; negative"}, {"measurement": "mutagenic call", "setting": "[6]", "result": "inactive; negative"}, {"measurement": "mutagenic call", "setting": "Test System: AMES SALMONELLA TYPHIMURIUM, Strain/Indicator: TA1537, Metabolic Activation: HAMSTER, LIVER, S-9, AROCLOR 1254, Method: STANDARD PLATE", "result": "inactive; negative"}, {"measurement": "mutagenic call", "setting": "[7]", "result": "inactive; negative"}, {"measurement": "mutagenic call", "setting": "[8]", "result": "inactive; negative"}, {"measurement": "mutagenic call", "setting": "Test System: Mouse lymphoma, Strain/Indicator: L5178Y (tk+/tk-), Metabolic Activation: None, Method: Suspension/plate", "result": "active; positive"}, {"measurement": "mutagenic call", "setting": "Test System: Mouse lymphoma, Strain/Indicator: L5178Y (tk+/tk-), Metabolic Activation: Rat, Liver, S-9, Aroclor 1254, Method: Suspension/plate", "result": "inactive; negative"}]}
{"smiles": "N[C@@H](CCC(=O)Nc1ccc([N+](=O)[O-])cc1)C(=O)O", "values": [{"measurement": "mutagenic call", "setting": "[3]", "result": "inactive; negative"}, {"measurement": "mutagenic call", "setting": "Test System: AMES SALMONELLA TYPHIMURIUM, Strain/Indicator: TA100, Metabolic Activation: RAT KIDNEY, MICROSOMES, Method: STANDARD PLATE", "result": "inactive; negative"}, {"measurement": "mutagenic call", "setting": "Test System: AMES SALMONELLA TYPHIMURIUM, Strain/Indicator: TA100, Metabolic Activation: RAT LIVER, MICROSOMES, Method: STANDARD PLATE", "result": "inactive; negative"}]}
{"smiles": "C=C(C)C(=O)OCCCCCCOC(=O)C(=C)C", "values": [{"measurement": "mutagenic call", "setting": "[1]", "result": "inactive; negative"}, {"measurement": "mutagenic call", "setting": "[2]", "result": "inactive; negative"}, {"measurement": "mutagenic call", "setting": "Test System: AMES SALMONELLA TYPHIMURIUM, Strain/Indicator: TA98, Metabolic Activation: RAT, LIVER, S-9, SODIUM PHENOBARBITAL, Method: STANDARD PLATE", "result": "inactive; negative"}, {"measurement": "mutagenic call", "setting": "[3]", "result": "inactive; negative"}, {"measurement": "mutagenic call", "setting": "[4]", "result": "inactive; negative"}, {"measurement": "mutagenic call", "setting": "Test System: AMES SALMONELLA TYPHIMURIUM, Strain/Indicator: TA100, Metabolic Activation: RAT, LIVER, S-9, SODIUM PHENOBARBITAL, Method: STANDARD PLATE", "result": "inactive; negative"}, {"measurement": "mutagenic call", "setting": "[5]", "result": "inactive; negative"}, {"measurement": "mutagenic call", "setting": "[6]", "result": "inactive; negative"}, {"measurement": "mutagenic call", "setting": "Test System: AMES SALMONELLA TYPHIMURIUM, Strain/Indicator: TA1535, Metabolic Activation: RAT, LIVER, S-9, SODIUM PHENOBARBITAL, Method: STANDARD PLATE", "result": "inactive; negative"}, {"measurement": "mutagenic call", "setting": "[7]", "result": "inactive; negative"}, {"measurement": "mutagenic call", "setting": "[8]", "result": "inactive; negative"}, {"measurement": "mutagenic call", "setting": "Test System: AMES SALMONELLA TYPHIMURIUM, Strain/Indicator: TA1537, Metabolic Activation: RAT, LIVER, S-9, SODIUM PHENOBARBITAL, Method: STANDARD PLATE", "result": "inactive; negative"}, {"measurement": "mutagenic call", "setting": "Test System: AMES SALMONELLA TYPHIMURIUM, Strain/Indicator: TA1538, Metabolic Activation: NONE, Method: STANDARD PLATE", "result": "inactive; negative"}, {"measurement": "mutagenic call", "setting": "Test System: AMES SALMONELLA TYPHIMURIUM, Strain/Indicator: TA1538, Metabolic Activation: RAT, LIVER, S-9, AROCLOR 1254, Method: STANDARD PLATE", "result": "inactive; negative"}, {"measurement": "mutagenic call", "setting": "Test System: AMES SALMONELLA TYPHIMURIUM, Strain/Indicator: TA1538, Metabolic Activation: RAT, LIVER, S-9, SODIUM PHENOBARBITAL, Method: STANDARD PLATE", "result": "inactive; negative"}]}
